# According to the kinase profiling compilation of Christmann-Franck et al. (2016):
# How the values were obtained:
# Assay in all cases: radiometric filter-binding kinase assay, Kinase HotSpot
# Conditions in all cases: compound 0.5 µM; ATP 10 µM
# [1] = target: IRAK4 (human) (UniProt Q9NWZ3)
# [2] = target: STK39 (human) (UniProt Q9UEW8)
# [3] = target: MYLK (human) (UniProt Q15746)
# [4] = target: NEK1 (human) (UniProt Q96PY6)
# [5] = target: EPHA3 (human) (UniProt P29320)
# [6] = target: PRKD3 (human) (UniProt O94806)
# [7] = target: MARK1 (human) (UniProt Q9P0L2)
# [8] = target: CLK4 (human) (UniProt Q9HAZ1)
# [9] = target: WEE1 (human) (UniProt P30291)
# [10] = target: FGFR2 (human) (UniProt P21802)
# [11] = target: PLK3 (human) (UniProt Q9H4B4)
# [12] = target: CAMK1G (human) (UniProt Q96NX5)
# [13] = target: MKNK2 (human) (UniProt Q9HBH9)
# [14] = target: EPHB3 (human) (UniProt P54753)
# [15] = target: PAK7 (human) (UniProt Q9P286)
# [16] = target: PRKCG (human) (UniProt P05129)
# [17] = target: CAMK2D (human) (UniProt Q13557)
# [18] = target: SIK2 (human) (UniProt Q9H0K1)
# [19] = target: HCK (human) (UniProt P08631)
# [20] = target: ACVR1B (human) (UniProt P36896)
# [21] = target: DAPK3 (human) (UniProt O43293)
# [22] = target: PRKX (human) (UniProt P51817)
# [23] = target: NEK2 (human) (UniProt P51955)
# [24] = target: STK4 (human) (UniProt Q13043)
# [25] = target: TAOK1 (human) (UniProt Q7L7X3)
# [26] = target: MST4 (human) (UniProt Q9P289)
# [27] = target: MLTK (human) (UniProt Q9NYL2)
# [28] = target: NLK (human) (UniProt Q9UBE8)
# [29] = target: TGFBR1 (human) (UniProt P36897)
# [30] = target: MST1R (human) (UniProt Q04912)
# [31] = target: YES1 (human) (UniProt P07947)
# [32] = target: EPHB4 (human) (UniProt P54760)
# [33] = target: AURKB (human) (UniProt Q96GD4)
# [34] = target: SGK3 (human) (UniProt Q96BR1)
# [35] = target: PIM2 (human) (UniProt Q9P1W9)
# [36] = target: CHEK1 (human) (UniProt O14757)
# [37] = target: ERBB4 (human) (UniProt Q15303)
# [38] = target: PRKCA (human) (UniProt P17252)
# [39] = target: ROS1 (human) (UniProt P08922)
# [40] = target: MAPK12 (human) (UniProt P53778)
# [41] = target: CDK9 CCNT1 (human) (UniProt P50750+O60563)
# [42] = target: CDK4 CCND3 (human) (UniProt P30281+P11802)
# Chain of NLK (human) (Q9UBE8 whole entry, looked up): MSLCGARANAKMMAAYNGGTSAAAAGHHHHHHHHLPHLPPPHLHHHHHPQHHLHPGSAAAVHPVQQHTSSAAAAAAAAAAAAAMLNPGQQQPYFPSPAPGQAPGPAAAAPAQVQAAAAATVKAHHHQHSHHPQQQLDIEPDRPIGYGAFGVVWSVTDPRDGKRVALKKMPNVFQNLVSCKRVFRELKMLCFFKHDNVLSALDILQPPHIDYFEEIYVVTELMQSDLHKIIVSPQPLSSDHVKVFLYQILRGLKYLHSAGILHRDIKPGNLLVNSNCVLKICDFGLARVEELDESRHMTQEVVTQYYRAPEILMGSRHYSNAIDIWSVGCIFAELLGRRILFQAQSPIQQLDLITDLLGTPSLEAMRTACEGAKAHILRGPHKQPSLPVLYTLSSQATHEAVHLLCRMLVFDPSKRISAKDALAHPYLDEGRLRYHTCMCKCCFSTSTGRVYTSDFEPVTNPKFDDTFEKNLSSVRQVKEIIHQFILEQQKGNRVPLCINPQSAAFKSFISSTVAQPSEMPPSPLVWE
# Chain of ERBB4 (human) (Q15303 whole entry, looked up): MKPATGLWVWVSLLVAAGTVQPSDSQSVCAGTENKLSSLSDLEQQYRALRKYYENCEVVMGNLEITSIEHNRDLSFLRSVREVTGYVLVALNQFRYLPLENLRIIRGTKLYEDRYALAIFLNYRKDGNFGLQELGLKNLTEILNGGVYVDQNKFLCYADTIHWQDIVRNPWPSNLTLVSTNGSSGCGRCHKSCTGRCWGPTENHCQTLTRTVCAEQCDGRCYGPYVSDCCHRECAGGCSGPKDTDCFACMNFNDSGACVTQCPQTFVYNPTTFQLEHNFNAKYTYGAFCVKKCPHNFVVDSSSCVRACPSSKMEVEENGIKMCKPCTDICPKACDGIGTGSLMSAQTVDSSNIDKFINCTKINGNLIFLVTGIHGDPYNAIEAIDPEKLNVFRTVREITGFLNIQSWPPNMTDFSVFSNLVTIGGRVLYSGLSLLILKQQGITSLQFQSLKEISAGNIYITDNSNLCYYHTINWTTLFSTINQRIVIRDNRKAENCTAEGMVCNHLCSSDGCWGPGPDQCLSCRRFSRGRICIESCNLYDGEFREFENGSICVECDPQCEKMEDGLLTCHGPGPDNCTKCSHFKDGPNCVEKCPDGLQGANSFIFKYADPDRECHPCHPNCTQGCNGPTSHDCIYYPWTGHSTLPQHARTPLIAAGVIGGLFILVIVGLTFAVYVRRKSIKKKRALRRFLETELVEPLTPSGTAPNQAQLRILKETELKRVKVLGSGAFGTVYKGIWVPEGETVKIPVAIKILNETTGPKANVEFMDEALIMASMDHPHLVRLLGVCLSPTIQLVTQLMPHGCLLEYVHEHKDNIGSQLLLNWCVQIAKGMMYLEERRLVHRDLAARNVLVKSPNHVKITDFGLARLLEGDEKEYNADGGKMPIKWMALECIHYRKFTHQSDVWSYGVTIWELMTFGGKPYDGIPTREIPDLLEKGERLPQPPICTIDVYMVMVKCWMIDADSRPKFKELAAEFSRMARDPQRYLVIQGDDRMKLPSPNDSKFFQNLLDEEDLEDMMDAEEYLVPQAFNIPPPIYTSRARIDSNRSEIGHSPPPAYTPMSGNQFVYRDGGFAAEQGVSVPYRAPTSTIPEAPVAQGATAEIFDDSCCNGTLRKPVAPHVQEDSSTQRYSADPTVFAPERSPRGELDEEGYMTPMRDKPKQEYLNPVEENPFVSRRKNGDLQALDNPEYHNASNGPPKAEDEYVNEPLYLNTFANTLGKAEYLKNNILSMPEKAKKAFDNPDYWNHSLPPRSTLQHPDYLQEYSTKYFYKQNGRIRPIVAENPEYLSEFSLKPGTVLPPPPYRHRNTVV
# Chain of CLK4 (human) (Q9HAZ1 whole entry, looked up): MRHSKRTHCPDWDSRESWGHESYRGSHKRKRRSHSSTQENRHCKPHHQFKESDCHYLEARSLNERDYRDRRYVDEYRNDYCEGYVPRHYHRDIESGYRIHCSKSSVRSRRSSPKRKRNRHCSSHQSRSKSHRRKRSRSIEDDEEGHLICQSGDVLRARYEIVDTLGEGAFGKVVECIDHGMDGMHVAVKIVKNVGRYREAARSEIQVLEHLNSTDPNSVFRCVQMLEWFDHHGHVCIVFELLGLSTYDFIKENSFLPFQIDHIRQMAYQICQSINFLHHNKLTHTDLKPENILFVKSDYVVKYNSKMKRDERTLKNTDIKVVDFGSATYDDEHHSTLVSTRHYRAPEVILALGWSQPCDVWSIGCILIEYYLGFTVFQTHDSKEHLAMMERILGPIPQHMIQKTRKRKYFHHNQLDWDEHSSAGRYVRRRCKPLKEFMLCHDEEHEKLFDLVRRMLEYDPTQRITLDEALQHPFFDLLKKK
# Chain of PAK7 (human) (Q9P286 whole entry, looked up): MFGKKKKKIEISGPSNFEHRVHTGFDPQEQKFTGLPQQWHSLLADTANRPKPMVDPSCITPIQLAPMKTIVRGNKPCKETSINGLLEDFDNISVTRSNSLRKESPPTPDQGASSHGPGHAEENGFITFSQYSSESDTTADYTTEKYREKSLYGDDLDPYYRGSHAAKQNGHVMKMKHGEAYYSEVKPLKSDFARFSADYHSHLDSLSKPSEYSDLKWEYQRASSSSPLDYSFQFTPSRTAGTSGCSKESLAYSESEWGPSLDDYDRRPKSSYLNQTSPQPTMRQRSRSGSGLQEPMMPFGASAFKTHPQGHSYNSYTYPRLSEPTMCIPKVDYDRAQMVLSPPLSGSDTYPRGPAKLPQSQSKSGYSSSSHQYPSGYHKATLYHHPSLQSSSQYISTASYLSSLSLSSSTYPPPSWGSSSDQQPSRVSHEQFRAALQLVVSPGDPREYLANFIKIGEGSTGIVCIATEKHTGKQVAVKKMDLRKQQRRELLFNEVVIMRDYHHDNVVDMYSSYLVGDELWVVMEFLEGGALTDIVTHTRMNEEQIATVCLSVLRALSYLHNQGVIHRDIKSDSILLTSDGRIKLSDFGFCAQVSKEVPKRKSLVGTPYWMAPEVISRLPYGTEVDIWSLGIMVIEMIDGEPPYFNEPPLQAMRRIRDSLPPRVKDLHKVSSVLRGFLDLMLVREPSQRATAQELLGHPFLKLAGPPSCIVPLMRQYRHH
# Chain of MST4 (human) (Q9P289 whole entry, looked up): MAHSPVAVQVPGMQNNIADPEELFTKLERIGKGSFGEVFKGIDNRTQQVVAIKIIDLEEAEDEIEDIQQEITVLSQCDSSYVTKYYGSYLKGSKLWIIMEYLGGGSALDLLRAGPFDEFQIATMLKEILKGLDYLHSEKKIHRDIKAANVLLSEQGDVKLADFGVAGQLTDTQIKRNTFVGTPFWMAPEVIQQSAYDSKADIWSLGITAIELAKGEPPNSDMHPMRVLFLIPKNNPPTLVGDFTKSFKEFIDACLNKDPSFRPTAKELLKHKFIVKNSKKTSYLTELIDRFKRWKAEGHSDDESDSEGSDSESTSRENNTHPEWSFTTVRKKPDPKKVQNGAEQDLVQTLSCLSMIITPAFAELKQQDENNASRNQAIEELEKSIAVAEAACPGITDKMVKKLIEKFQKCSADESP
# Chain of MARK1 (human) (Q9P0L2 whole entry, looked up): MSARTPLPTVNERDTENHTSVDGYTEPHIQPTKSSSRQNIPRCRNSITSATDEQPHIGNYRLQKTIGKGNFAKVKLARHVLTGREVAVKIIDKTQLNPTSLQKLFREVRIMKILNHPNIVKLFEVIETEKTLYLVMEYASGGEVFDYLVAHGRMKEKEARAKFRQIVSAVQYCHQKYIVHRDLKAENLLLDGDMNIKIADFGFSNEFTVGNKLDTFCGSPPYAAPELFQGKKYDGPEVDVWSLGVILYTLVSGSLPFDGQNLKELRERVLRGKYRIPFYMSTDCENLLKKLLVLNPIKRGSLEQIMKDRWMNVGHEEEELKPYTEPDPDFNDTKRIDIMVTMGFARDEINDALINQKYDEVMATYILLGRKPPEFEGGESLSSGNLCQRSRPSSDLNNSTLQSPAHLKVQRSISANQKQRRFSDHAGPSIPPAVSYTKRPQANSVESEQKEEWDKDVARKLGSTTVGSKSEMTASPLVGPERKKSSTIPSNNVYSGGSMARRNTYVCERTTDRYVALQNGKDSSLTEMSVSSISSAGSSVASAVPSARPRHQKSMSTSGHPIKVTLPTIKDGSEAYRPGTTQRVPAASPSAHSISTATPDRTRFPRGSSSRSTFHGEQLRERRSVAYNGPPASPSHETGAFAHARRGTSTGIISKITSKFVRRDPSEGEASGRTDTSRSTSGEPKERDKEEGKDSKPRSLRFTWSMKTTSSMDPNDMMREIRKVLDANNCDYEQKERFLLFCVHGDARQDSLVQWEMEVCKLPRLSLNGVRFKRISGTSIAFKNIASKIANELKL
# Chain of TGFBR1 (human) (P36897 whole entry, looked up): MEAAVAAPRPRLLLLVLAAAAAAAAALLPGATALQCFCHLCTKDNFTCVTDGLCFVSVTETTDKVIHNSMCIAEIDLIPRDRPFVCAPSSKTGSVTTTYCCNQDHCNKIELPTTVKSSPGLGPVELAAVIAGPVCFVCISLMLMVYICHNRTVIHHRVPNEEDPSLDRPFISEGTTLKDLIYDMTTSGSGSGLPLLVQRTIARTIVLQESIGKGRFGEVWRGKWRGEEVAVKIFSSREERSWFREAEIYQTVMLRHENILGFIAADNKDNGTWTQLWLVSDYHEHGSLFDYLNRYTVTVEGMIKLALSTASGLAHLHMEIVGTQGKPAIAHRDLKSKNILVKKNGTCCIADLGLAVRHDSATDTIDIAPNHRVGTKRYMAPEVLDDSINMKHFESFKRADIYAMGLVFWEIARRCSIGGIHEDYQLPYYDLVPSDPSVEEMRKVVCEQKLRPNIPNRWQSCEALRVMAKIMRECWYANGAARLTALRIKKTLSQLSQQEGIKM
compound,measurement,setting,value
CC(C)[C@H](CO)Nc1nc(Nc2cc(N)cc(Cl)c2)c2ncn(C(C)C)c2n1,residual activity,[1],86.8%
same,residual activity,[2],83.7%
same,residual activity,[3],81.3%
same,residual activity,[4],81.5%
same,residual activity,[5],86.6%
same,residual activity,[6],89.2%
same,residual activity,[7],87.5%
same,residual activity,[8],16.5%
same,residual activity,[9],70.8%
same,residual activity,[10],97.3%
same,residual activity,[11],62.8%
same,residual activity,[12],105%
same,residual activity,[13],113%
same,residual activity,[14],95.3%
same,residual activity,[15],44.3%
same,residual activity,[16],107%
same,residual activity,[17],87.3%
same,residual activity,[18],104%
same,residual activity,[19],27.3%
same,residual activity,[20],107%
same,residual activity,[21],96.7%
same,residual activity,[22],101%
same,residual activity,[23],94.4%
same,residual activity,[24],63.6%
same,residual activity,[25],79.9%
same,residual activity,[26],67.8%
same,residual activity,[27],92.3%
same,residual activity,[28],93.9%
same,residual activity,[29],103%
same,residual activity,[30],122%
same,residual activity,[31],7.03%
same,residual activity,[32],58.4%
same,residual activity,[33],87.8%
same,residual activity,[34],99.9%
same,residual activity,[35],113%
same,residual activity,[36],96.2%
same,residual activity,[37],131%
same,residual activity,[38],66.1%
same,residual activity,[39],96.5%
Cn1sc(=O)n(Cc2ccccc2)c1=O,residual activity,[1],107%
same,residual activity,[2],97.9%
same,residual activity,[3],94.5%
same,residual activity,[4],102%
same,residual activity,[5],107%
same,residual activity,[6],95.9%
same,residual activity,[7],107%
same,residual activity,[8],99.1%
same,residual activity,[9],92.3%
same,residual activity,[40],102%
same,residual activity,[11],99.1%
same,residual activity,[12],117%
same,residual activity,[13],92.1%
same,residual activity,[14],91.3%
same,residual activity,[15],81.1%
same,residual activity,[16],86.6%
same,residual activity,[17],98.9%
same,residual activity,[18],98.6%
same,residual activity,[19],103%
same,residual activity,[41],94.2%
same,residual activity,[20],103%
same,residual activity,[21],103%
same,residual activity,[22],102%
same,residual activity,[23],99.7%
same,residual activity,[24],107%
same,residual activity,[25],88.9%
same,residual activity,[26],98.1%
same,residual activity,[27],100%
same,residual activity,[28],105%
same,residual activity,[29],97.2%
same,residual activity,[30],101%
same,residual activity,[31],96.3%
same,residual activity,[32],100%
same,residual activity,[33],102%
same,residual activity,[34],102%
same,residual activity,[35],107%
same,residual activity,[36],103%
same,residual activity,[42],114%
same,residual activity,[37],104%
same,residual activity,[38],71.8%
same,residual activity,[39],103%
Nc1nccc(-c2c(-c3ccc(F)cc3)ncn2C2CCNCC2)n1,residual activity,[1],123%
same,residual activity,[2],93.5%
same,residual activity,[3],99.8%
same,residual activity,[4],100%
same,residual activity,[5],97.4%
same,residual activity,[6],37.9%
same,residual activity,[7],97.9%
same,residual activity,[8],96.9%
same,residual activity,[9],106%
same,residual activity,[10],104%
same,residual activity,[11],97.8%
same,residual activity,[12],99.3%
same,residual activity,[13],92.1%
same,residual activity,[14],101%
same,residual activity,[15],101%
same,residual activity,[16],87.8%
same,residual activity,[17],100%
same,residual activity,[18],64.7%
same,residual activity,[19],95.5%
same,residual activity,[41],87.1%
same,residual activity,[20],121%
same,residual activity,[21],96.5%
same,residual activity,[22],96.8%
same,residual activity,[23],103%
same,residual activity,[24],103%
same,residual activity,[25],92.7%
same,residual activity,[26],98.4%
same,residual activity,[27],98%
same,residual activity,[28],12.1%
same,residual activity,[29],102%
same,residual activity,[30],100%
same,residual activity,[31],85.3%
same,residual activity,[32],91.5%
same,residual activity,[33],103%
same,residual activity,[34],97.5%
same,residual activity,[35],100%
same,residual activity,[36],99.8%
same,residual activity,[42],104%
same,residual activity,[37],86.8%
same,residual activity,[38],89.1%
same,residual activity,[39],94.1%
